Data taken from US20040180916A1, “Treatment of pain with combinations of nalbuphine and other kappa-opioid receptor agonists and opioid receptor antagonists” (The Regents of the University of California, priority 2002, published 2004).
Where a name gives a salt, the structure may show the parent alone. Read-outs that look alike come from different tables or passages of the source.

Experiments:
postoperative pain [1] = conditions: nalbuphine hydrochloride salt 2.5 mg alone; both sexes; intravenous
Experimental: In this clinical trial, 65 patients underwent standardized surgery by the same oral surgeon for removal of third molar teeth, including at least one bony impacted mandibular third molar. Prior to surgery, patients received intravenous diazepam, nitrous oxide, and a local anesthetic (mepivacaine without vasoconstrictor to obtain a nerve block of short duration). After surgery, each patient was randomly assigned to receive an injection of 2.5 mg of nalbuphine hydrochloride salt (Abbott Laboratories, Abbott Park, Ill.) either alone or combined with 0.2 mg naloxone hydrochloride salt in an open injection, double-blinded fashion, through an intravenous line.
Baseline pain intensity was defined as the last VAS pain rating before administration of the test drug. VAS pain ratings were recorded at 20 minute intervals beginning ten minutes after administration of the test drug. The duration of the experiment, measured from the time of administration of the test drug, was two hours and fifty minutes. For each patient, the magnitude of the analgesic (or anti-analgesic) response was defined as the difference between the pain rating at each time point following test drug administration and the baseline VAS pain rating.

postoperative pain [2] = conditions: intravenous; for analgesic response (change in VAS pain rating): nalbuphine hydrochloride salt 2.5 mg alone
Text: In this clinical trial 67 patients underwent standardized surgery by the same oral surgeon for removal of third molar teeth, including at least one bony impacted mandibular third molar. Prior to surgery, patients received intravenous diazepam, nitrous oxide, and a local anesthetic (mepivacaine without vasoconstrictor to obtain a nerve block of short duration). After surgery, each patient was randomly assigned to receive an injection of nalbuphine hydrochloride salt (Abbott Laboratories, Abbott Park, Ill.) 2.5 mg either alone or combined with naloxone hydrochloride salt (0.4 mg) in an open injection, double-blinded fashion, through an intravenous line.
Baseline pain intensity was defined as the last VAS pain rating before administration of the test drug. VAS pain ratings were recorded at 20 minute intervals beginning ten minutes after administration of the test drug. The duration of the experiment was two hours and fifty minutes, measured from the time of administration of the test drug. For each patient, the magnitude of the analgesic (or anti-analgesic) response was defined as the difference between the pain rating at each time point following test drug administration and the baseline VAS pain rating.

Question: Which results are given for `Oc1ccc2c3c1O[C@H]1[C@@H](O)CC[C@@]4(O)[C@@H](C2)N(CC2CCC2)CC[C@]314` [nalbuphine hydrochloride salt, nalbuphine]?
Answer: analgesic effect (postoperative pain [1]): initial analgesic effect of administration of nalbuphine alone observed in both sexes; analgesic response (change in VAS pain rating) (postoperative pain [2]; FIG. 4a, women): induced brief analgesia; analgesic response (change in VAS pain rating) (postoperative pain [2]; FIG. 4b, men): failed to produce significant analgesia; anti-analgesia (postoperative pain [2]; women, nalbuphine hydrochloride salt 2.5 mg): apparently insufficient to produce anti-analgesia
